Laboratory results reported in PMC12408681, “Tail-less precursors in synthetic cannabinoid production: investigating a clandestine laboratory, seized samples, and CB1 activity” (Archives of Toxicology, 2025).
Where “and” joins values, the source holds several entries; their conditions need not be identical. Equal entries are not always repeated.

Assays:
[1] = biological target: T1, human CB1 (Homo sapiens, UniProt P21554); assay: NanoBiT CB1 β-arrestin 2 recruitment assay; type: cell-based; design: expressed in transfected cells; details: for Efficacy (Emax) Mean Diff: CP55,940 as reference
Target sequence in this assay (P21554 whole entry): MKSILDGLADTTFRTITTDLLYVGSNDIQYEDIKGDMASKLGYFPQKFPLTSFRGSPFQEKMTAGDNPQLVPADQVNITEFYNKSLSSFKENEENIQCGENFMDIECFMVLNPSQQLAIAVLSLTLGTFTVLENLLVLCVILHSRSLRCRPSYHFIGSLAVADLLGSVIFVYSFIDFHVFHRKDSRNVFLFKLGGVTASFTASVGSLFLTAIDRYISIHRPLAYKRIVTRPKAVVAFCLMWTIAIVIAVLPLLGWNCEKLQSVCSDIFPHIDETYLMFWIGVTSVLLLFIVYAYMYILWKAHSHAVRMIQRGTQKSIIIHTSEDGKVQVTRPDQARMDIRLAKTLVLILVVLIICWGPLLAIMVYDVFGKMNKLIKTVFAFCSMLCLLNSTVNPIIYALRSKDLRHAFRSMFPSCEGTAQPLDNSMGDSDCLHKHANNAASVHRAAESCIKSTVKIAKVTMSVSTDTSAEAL
Target sequence in this assay (P32121 whole entry partner): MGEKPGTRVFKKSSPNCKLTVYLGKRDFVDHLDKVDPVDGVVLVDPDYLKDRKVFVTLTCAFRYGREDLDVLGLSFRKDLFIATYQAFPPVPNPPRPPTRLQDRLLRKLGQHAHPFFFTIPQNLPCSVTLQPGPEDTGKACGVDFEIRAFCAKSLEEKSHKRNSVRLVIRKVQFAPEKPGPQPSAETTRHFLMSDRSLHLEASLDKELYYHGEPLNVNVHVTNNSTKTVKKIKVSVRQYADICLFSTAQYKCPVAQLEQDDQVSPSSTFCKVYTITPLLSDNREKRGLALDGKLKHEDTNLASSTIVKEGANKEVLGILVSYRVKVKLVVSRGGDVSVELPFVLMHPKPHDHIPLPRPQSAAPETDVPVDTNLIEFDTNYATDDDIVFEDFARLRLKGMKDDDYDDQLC

[2] = biological target: T1, human CB1; assay: AequoScreen CB1 intracellular Ca2+ release assay; type: cell-based; design: host or cells: CHO-K1 (AequoZen recombinant cell line)
Target sequence in this assay (P21554 whole entry): as the sequence (P21554 whole entry) above

[3] = tested on: paclitaxel-induced peripheral neuropathy; design: method as in one study (reference not given); details: rats; ref one study (reference not given); cited from earlier work
[4] = Potency (EC50, nM) β-arrestin 2, Table 4, reference standards and precursor:final SCRA mixtures, total (combined) SCRA concentration, n ≥ 3
[5] = Potency (EC50, nM) β-arrestin 2, Table 5, Ref (reference standard)
[6] = Table 4, reference standards and mixtures, total SCRA concentration
[7] = Table 5, Ref (reference standard)
[8] = Potency (EC50, nM) AequoScreen, Table 4, reference standards and mixtures, total SCRA concentration, n ≥ 3
[9] = Potency (EC50, nM) AequoScreen, Table 5, Ref (reference standard)
[10] = Table 5, Ref (reference standard), read-out: Potency (EC50, nM) β-arrestin 2
[11] = Table 5, Ref (reference standard), read-out: Potency (EC50, nM) AequoScreen
[12] = vs 5% MDMB-4en-PINACA, only concentration of final product in mixture
[13] = vs 5% MDMB-4en-PINACA, total concentration of SCRAs in mixture
[14] = vs 25% MDMB-4en-PINACA, only concentration of final product in mixture
[15] = vs 25% MDMB-4en-PINACA, total concentration of SCRAs in mixture
[16] = vs 50% MDMB-4en-PINACA, only concentration of final product in mixture
[17] = vs 50% MDMB-4en-PINACA, total concentration of SCRAs in mixture
[18] = vs 75% MDMB-4en-PINACA, only concentration of final product in mixture
[19] = vs 75% MDMB-4en-PINACA, total concentration of SCRAs in mixture

CCCCn1nc(C(=O)N[C@H](C(N)=O)C(C)(C)C)c2ccccc21 [100% ADB-BUTINACA]
Efficacy (Emax) Mean Diff ([1]; vs 5% ADB-BUTINACA, only concentration of final product in mixture): 76.63 | Efficacy (Emax) Mean Diff ([1]; vs 5% ADB-BUTINACA, total concentration of SCRAs in mixture): 98.60 | Efficacy (Emax) Mean Diff ([1]; vs 25% ADB-BUTINACA, only concentration of final product in mixture): 52.66 | Efficacy (Emax) Mean Diff ([1]; vs 25% ADB-BUTINACA, total concentration of SCRAs in mixture): 66.35 | Efficacy (Emax) Mean Diff ([1]; vs 50% ADB-BUTINACA, only concentration of final product in mixture): 144.9 | Efficacy (Emax) Mean Diff ([1]; vs 50% ADB-BUTINACA, total concentration of SCRAs in mixture): 155.6 | Efficacy (Emax) Mean Diff ([1]; vs 75% ADB-BUTINACA, only concentration of final product in mixture): 60.28 | Efficacy (Emax) Mean Diff ([1]; vs 75% ADB-BUTINACA, total concentration of SCRAs in mixture): 70.25

C=CCCCn1nc(C(=O)NC(C(=O)OC)C(C)(C)C)c2ccccc21 (stereo not shown) [MDMB-4en-PINACA, methyl 3,3-dimethyl-2-(1-(pent-4-en-1-yl)-1H-indazole-3-carboxamido)butanoate]
EC50 [1, 4]: 1.8 nM | EC50 [1, 5]: 1.8 nM | Efficacy (% of CP55,940) Emax β-arrestin 2 [1, 6]: 1088 % of CP55,940 and 1090 % of CP55,940 | Efficacy (% of CP55,940) Emax β-arrestin 2 [1, 7]: 1090 % of CP55,940 | EC50 [2, 8]: 1.2 nM and 1.17 nM | EC50 [2, 9]: 1.89 nM | Efficacy (% of JWH-018) Emax AequoScreen [2, 6]: 104 % of JWH-018 | Efficacy (% of JWH-018) Emax AequoScreen [2, 7]: 109 % of JWH-018

CCCCCn1cc(C(=O)c2cccc3ccccc23)c2ccccc21 [JWH-018, reference compound]
Efficacy (% of CP55,940) Emax β-arrestin 2 [1, 6]: 335 % of CP55,940 | EC50 ([1]; Table 4, reference standards and precursor:final SCRA mixtures, total (combined) SCRA concentration, n ≥ 3, read-out: Potency (EC50, nM) β-arrestin 2): 9.55 nM | Efficacy (% of CP55,940) Emax β-arrestin 2 [1, 7]: 352 % of CP55,940 | EC50 [1, 10]: 11 nM | Efficacy (% of JWH-018) Emax AequoScreen [2, 6]: 97.6 % of JWH-018 | EC50 ([2]; Table 4, reference standards and mixtures, total SCRA concentration, n ≥ 3, read-out: Potency (EC50, nM) AequoScreen): 5.14 nM | Efficacy (% of JWH-018) Emax AequoScreen [2, 7]: 99.8 % of JWH-018 | EC50 [2, 11]: 13.5 nM

COC(=O)[C@@H](NC(=O)c1n[nH]c2ccccc12)C(C)(C)C [MDMB-INACA (ref)]
Efficacy (Emax) Mean Diff ([1]; vs MDMB-INACA (seizure)): -144.0 | Efficacy (Emax) Mean Diff ([2]; vs MDMB-INACA (seizure), CP55,940 as reference): 1.797

COC(=O)C(NC(=O)c1n[nH]c2ccccc12)C(C)(C)C (stereo not shown) [MDMB-INACA]
Efficacy (% of CP55,940) Emax β-arrestin 2 [1, 7]: 294 % of CP55,940 | EC50 [1, 10]: 2400 nM | Efficacy (% of CP55,940) Emax β-arrestin 2 ([1]; Table 5, Seizure (precursor seized in Switzerland)): 438 % of CP55,940 | EC50 ([1]; Table 5, Seizure (precursor seized in Switzerland), read-out: Potency (EC50, nM) β-arrestin 2): 2190 nM | EC50 [2, 11]: 11200 nM | EC50 ([2]; Table 5, Seizure (precursor seized in Switzerland), read-out: Potency (EC50, nM) AequoScreen): 7610 nM | Analgesic effects on paclitaxel-induced peripheral neuropathy [3]: analgesic effects

CC(C)(C)C(NC(=O)c1n[nH]c2ccccc12)C(N)=O (stereo not shown) [ADB-INACA]
Analgesic effects on paclitaxel-induced peripheral neuropathy [3]: analgesic effects

COC(=O)[C@@H](NC(=O)c1n[nH]c2ccccc12)C(C)(C)C [100% MDMB-INACA]
Efficacy (Emax) Mean Diff [1, 12]: 550.8 | Efficacy (Emax) Mean Diff [1, 13]: 539.7 | Efficacy (Emax) Mean Diff [1, 14]: 569.4 | Efficacy (Emax) Mean Diff [1, 15]: 560.7 | Efficacy (Emax) Mean Diff [1, 16]: 558.2 | Efficacy (Emax) Mean Diff [1, 17]: 545.8 | Efficacy (Emax) Mean Diff [1, 18]: 521.9 | Efficacy (Emax) Mean Diff [1, 19]: 510.6 | Efficacy (Emax) Mean Diff ([1]; vs 100% MDMB-4en-PINACA, only concentration of final product in mixture): 536.7 | Efficacy (Emax) Mean Diff ([1]; vs 100% MDMB-4en-PINACA, total concentration of SCRAs in mixture): 536.7 | Efficacy (Emax) Mean Diff ([2]; vs 5% MDMB-4en-PINACA, only concentration of final product in mixture, JWH-018 as reference): 2.037 | Efficacy (Emax) Mean Diff ([2]; vs 5% MDMB-4en-PINACA, total concentration of SCRAs in mixture, JWH-018 as reference): 6.744 | Efficacy (Emax) Mean Diff ([2]; vs 25% MDMB-4en-PINACA, only concentration of final product in mixture, JWH-018 as reference): -0.07601 | Efficacy (Emax) Mean Diff ([2]; vs 25% MDMB-4en-PINACA, total concentration of SCRAs in mixture, JWH-018 as reference): 2.036 | Efficacy (Emax) Mean Diff ([2]; vs 50% MDMB-4en-PINACA, only concentration of final product in mixture, JWH-018 as reference): 9.030 | Efficacy (Emax) Mean Diff ([2]; vs 50% MDMB-4en-PINACA, total concentration of SCRAs in mixture, JWH-018 as reference): -0.07656 | Efficacy (Emax) Mean Diff ([2]; vs 75% MDMB-4en-PINACA, only concentration of final product in mixture, JWH-018 as reference): 6.745 | Efficacy (Emax) Mean Diff ([2]; vs 75% MDMB-4en-PINACA, total concentration of SCRAs in mixture, JWH-018 as reference): 9.029 | Efficacy (Emax) Mean Diff ([2]; vs 100% MDMB-4en-PINACA, only concentration of final product in mixture, JWH-018 as reference): 8.229 | Efficacy (Emax) Mean Diff ([2]; vs 100% MDMB-4en-PINACA, total concentration of SCRAs in mixture, JWH-018 as reference): 8.229

C=CCCCn1nc(C(=O)N[C@H](C(=O)OC)C(C)(C)C)c2ccccc21 [100% MDMB-4en-PINACA]
Efficacy (Emax) Mean Diff [1, 12]: -14.08 | Efficacy (Emax) Mean Diff [1, 13]: -3.010 | Efficacy (Emax) Mean Diff [1, 14]: -32.68 | Efficacy (Emax) Mean Diff [1, 15]: -24.05 | Efficacy (Emax) Mean Diff [1, 16]: -21.46 | Efficacy (Emax) Mean Diff [1, 17]: -9.133 | Efficacy (Emax) Mean Diff [1, 18]: 14.76 | Efficacy (Emax) Mean Diff [1, 19]: 26.09

CCCCn1nc(C(=O)NC(C(N)=O)C(C)(C)C)c2ccccc21 (stereo not shown) [ADB-BUTINACA]
EC50 [1, 4]: 6.7 nM and 6.73 nM | EC50 [1, 5]: 5.65 nM | Efficacy (% of CP55,940) Emax β-arrestin 2 [1, 6]: 1282 % of CP55,940 and 1280 % of CP55,940 | Efficacy (% of CP55,940) Emax β-arrestin 2 [1, 7]: 1330 % of CP55,940 | EC50 [2, 8]: 5.6 nM and 5.64 nM | EC50 [2, 9]: 7.27 nM | Efficacy (% of JWH-018) Emax AequoScreen [2, 6]: 105 % of JWH-018 | Efficacy (% of JWH-018) Emax AequoScreen [2, 7]: 111 % of JWH-018
